Results: patent publication US9029389B2 (Institut Pasteur Korea, priority 2011, dated 2015)

Legend:
Human 5-lipoxygenase = target: T1, Human 5-lipoxygenase (Homo sapiens, UniProt P09917); experiment: Activity of compounds against 5-LO enzyme (LTB4 measurement and/or fluorescence method); type: biochemical; details: for inhibition at 10 µM: 5-LO, single concentration of 10 uM in duplicate; for IC50: 6 or 11 point dose response in duplicate
T1 construct: purchased Cayman 60402; host or cells: insect cells
T1 sequence (P09917 1-674): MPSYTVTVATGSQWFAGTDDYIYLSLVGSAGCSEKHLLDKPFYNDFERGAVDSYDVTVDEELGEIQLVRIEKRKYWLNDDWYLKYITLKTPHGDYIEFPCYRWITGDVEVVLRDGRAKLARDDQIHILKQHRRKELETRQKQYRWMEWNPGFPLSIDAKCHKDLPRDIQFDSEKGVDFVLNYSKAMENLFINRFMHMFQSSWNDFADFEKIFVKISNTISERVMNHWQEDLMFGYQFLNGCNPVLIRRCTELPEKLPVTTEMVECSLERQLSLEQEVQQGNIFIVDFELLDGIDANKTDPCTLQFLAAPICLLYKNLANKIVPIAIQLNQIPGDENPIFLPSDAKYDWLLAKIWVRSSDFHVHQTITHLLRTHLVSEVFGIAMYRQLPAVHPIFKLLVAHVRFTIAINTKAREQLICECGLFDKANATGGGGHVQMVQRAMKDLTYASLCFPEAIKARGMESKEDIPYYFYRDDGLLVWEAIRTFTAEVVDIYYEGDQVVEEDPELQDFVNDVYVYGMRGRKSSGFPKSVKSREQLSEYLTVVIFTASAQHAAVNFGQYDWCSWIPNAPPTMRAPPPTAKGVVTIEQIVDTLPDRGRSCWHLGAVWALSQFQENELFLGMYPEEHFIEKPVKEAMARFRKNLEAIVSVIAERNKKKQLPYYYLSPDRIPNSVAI
Method in brief: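 Insect-cell human 5-LO preincubated 15 min at RT with compound (pH 7.4, 2 mM CaCl2, 0.1 mM ATP, 1% DMSO), then 3 uM arachidonic acid for 5 min at 37 °C; LTB4 quantified by EIA and/or LC/MS/MS. Alternatively, fluorescence of 5-HpETE via H2DCFDA, 100 uM ATP, 3 uM arachidonic acid, 5 min, RT; single 10 uM screen then 6- or 11-point IC50.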

melting point	inhibition at 10 µM (Human 5-lipoxygenase)	IC50 (Human 5-lipoxygenase)	Compound
117.9 °C	< 40%	–	CCc1nc2cc(Cl)ccn2c1C(=O)NCc1ccc(N2CCCCC2C)cc1 (centres unmarked) [compound 252, 7-chloro-2-ethyl-N-(4-(2-methylpiperidin-1-yl)benzyl)imidazo[1,2-a]pyridine-3-carboxamide]
> 125.9 °C (dec.)	< 40%	–	CCc1nc2cc(Cl)ccn2c1C(=O)NCc1ccc(CC2CCOCC2)cc1 [compound 359, 7-chloro-2-ethyl-N-(4-((tetrahydro-2H-pyran-4-yl)methyl)benzyl)imidazo[1,2-a]pyridine-3-carboxamide]
208.5 °C	< 40%	–	CCc1nc2cc(-c3cccnc3)ccn2c1C(=O)NCc1ccc(N2CCOCC2)cc1 [compound 305, 2-Ethyl-N-(4-morpholinobenzyl)-7-(pyridin-3-yl)imidazo[1,2-a]pyridine-3-carboxamide]
182.7 °C	40 to 69%	–	CCc1nc2cc(Cl)ccn2c1C(=O)NCc1ccc(N2CCC(c3ccc(F)cc3)CC2)cc1 [compound 250, 7-Chloro-2-ethyl-N-(4-(4-(4-fluorophenyl)piperidin-1-yl)benzyl)imidazo[1,2-a]pyridine-3-carboxamide]
> 168 °C (dec.)	40 to 69%	–	CCc1nc2ccc(Cl)cn2c1C(=O)NCc1cccc(N2CCN(c3ccc(OC(F)(F)F)cc3)CC2)c1 [compound 356, 6-chloro-2-ethyl-N-(3-(4-(4-(trifluoromethoxy)phenyl)piperazin-1-yl)benzyl)imidazo[1,2-a]pyridine-3-carboxamide]
174.2 °C	< 40%	–	CCc1nc2cc(Cl)ccn2c1C(=O)NCc1ccc(N2CCC3CCCCC3C2)cc1 (centres unmarked) [compound 222, 7-Chloro-2-ethyl-N-(4-(octahydroisoquinolin-2(1H)-yl)benzyl)imidazo[1,2-a]pyridine-3-carboxamide]
196.2 to 196.9 °C	< 40%	–	CCc1nc2cc(Cl)ccn2c1C(=O)NCc1ccc(C(F)(F)F)cc1 [compound 155, 7-Chloro-2-ethyl-N-(4-(trifluoromethyl)benzyl)imidazo[1,2-a]pyridine-3-carboxamide]
174.1 °C	< 40%	–	CCc1nc2cc(C(F)(F)F)ccn2c1C(=O)NCc1ccc(N2CCOCC2)cc1 [compound 290, 2-Ethyl-N-(4-morpholinobenzyl)-7-(trifluoromethyl)imidazo[1,2-a]pyridine-3-carboxamide]
189.7 °C	< 40%	–	CCc1nc2ccc(Br)cn2c1C(=O)NCc1ccc(OCc2ccc(OC(F)(F)F)cc2)cc1 [compound 206, 6-Bromo-2-ethyl-N-(4-(4-(trifluoromethoxy)benzyloxy)benzyl)imidazo[1,2-a]pyridine-3-carboxamide]
121.3 °C	> 69%	1 to 20 µM	CCC1=C(C(=O)NCc2ccc(N3CCC(C)(C)CC3)cc2)N2C=CC(Cl)=CC2N1 (centres unmarked) [compound 211, 7-Chloro-N-(4-(4,4-dimethylpiperidin-1-yl)benzyl)-2-ethyl-1,8a-dihydroimidazo[1,2-a]pyridine-3-carboxamide]
207.6 °C	< 40%	–	CCc1nc2ccc(C(F)(F)F)cn2c1C(=O)NCc1ccc(N2CCOCC2)cc1 [compound 273, 2-Ethyl-N-(4-morpholinobenzyl)-6-(trifluoromethyl)imidazo[1,2-a]pyridine-3-carboxamide]
189.5 °C	< 40%	–	CCc1nc2cc(Cl)ccn2c1C(=O)NCc1ccc(N2CCC(COc3ccc(OC(F)(F)F)cc3)CC2)cc1 [compound 214, 7-Chloro-2-ethyl-N-(4-(4-((4-(trifluoromethoxy)phenoxy)methyl)piperidin-1-yl)benzyl)imidazo[1,2-a]pyridine-3-carboxamide]
> 220 °C	< 40%	–	CCc1nc2ccc(Cl)cn2c1C(=O)NCc1nc2cc(Cl)ccc2n1C [compound 368, 6-chloro-N-((5-chloro-1-methyl-1H-benzo[d]imidazol-2-yl)methyl)-2-ethylimidazo[1,2-a]pyridine-3-carboxamide]
218.1 °C	< 40%	–	CCc1nc2ccc(Br)cn2c1C(=O)NCc1ccc(N2CCN(c3ccc(F)cc3)CC2)cc1 [compound 229, 6-Bromo-2-ethyl-N-(4-(4-(4-fluorophenyl)piperazin-1-yl)benzyl)imidazo[1,2-a]pyridine-3-carboxamide]
184.8 °C	–	1 to 20 µM	CCc1nc2ncccn2c1C(=O)NCc1ccc(-c2ccc(Cl)cc2)cc1 [compound 386, N-((4′-Chloro-[1,1′-biphenyl]-4-yl)methyl)-2-ethylimidazo[1,2-a]pyrimidine-3-carboxamide]
173.2 to 174.2 °C	< 40%	–	CCc1nc2ccc(Cl)cn2c1CO [compound 146, (6-Chloro-2-ethylimidazo[1,2-a]pyridin-3-yl)methanol]
163 °C	< 40%	–	CCc1nc2ccc(Cl)cn2c1C(=O)NCc1ccc(N2CCN3CCCC3C2)cc1 (centres unmarked) [compound 237, 6-Chloro-2-ethyl-N-(4-(hexahydropyrrolo[1,2-a]pyrazin-2(1H)-yl)benzyl)imidazo[1,2-a]pyridine-3-carboxamide]
173.5 °C	40 to 69%	–	CCc1nc2ccc(Cl)cn2c1C(=O)NCc1ccc(N2CCC(O)(c3ccc(F)cc3)CC2)cc1 [compound 306, 6-Chloro-2-ethyl-N-(4-(4-(4-fluorophenyl)-4-hydroxypiperidin-1-yl)benzyl)imidazo[1,2-a]pyridine-3-carboxamide]
189.2 °C	> 69%	1 to 20 µM	CCc1nc2ccccn2c1C(=O)NCc1ccc(N2CCN(c3ccc(F)cc3)CC2)cc1 [compound 227, 2-Ethyl-N-(4-(4-(4-fluorophenyl)piperazin-1-yl)benzyl)imidazo[1,2-a]pyridine-3-carboxamide]
212.5 °C	40 to 69%	–	CCc1nc2cc(N3CCN(Cc4ccc(F)cc4)CC3)ccn2c1C(=O)NCc1ccc(N2CCOCC2)cc1 [compound 257, 2-Ethyl-7-(4-(4-fluorobenzyl)piperazin-1-yl)-N-(4-morpholinobenzyl)imidazo[1,2-a]pyridine-3-carboxamide]
80.7 °C	–	1 to 20 µM	CCc1nc2ccc(Cl)cn2c1C(=O)N1CCC(Oc2ccc(OC(F)(F)F)cc2)CC1 [compound 384, (6-Chloro-2-ethylimidazo[1,2-a]pyridin-3-yl)(4-(4-(trifluoromethoxy)phenoxy)piperidin-1-yl)methanone]
183.6 °C	< 40%	–	CCc1nc2ccc(Cl)cn2c1C(=O)NCc1ccc(N2CCC(COc3ccc(OC(F)(F)F)cc3)CC2)cc1 [compound 213, 6-chloro-2-ethyl-N-(4-(4-((4-(trifluoromethoxy)phenoxy)methyl)piperidin-1-yl)benzyl)imidazo[1,2-a]pyridine-3-carboxamide]
> 220 °C	< 40%	–	CCc1nc2cc(Cl)ccn2c1C(=O)NCc1nc2ccc(-c3ccc(OC(F)(F)F)cc3)cc2o1 [compound 374, 7-chloro-2-ethyl-N-((6-(4-(trifluoromethoxy)phenyl)benzo[d]oxazol-2-yl)methyl)imidazo[1,2-a]pyridine-3-carboxamide]
> 142.3 °C (dec.)	< 40%	–	CCc1nc2ccc(Cl)cn2c1C(=O)NCc1cccc(N(C)Cc2ccc(OC(F)(F)F)cc2)c1 [compound 352, 6-chloro-2-ethyl-N-(3-(methyl(4-(trifluoromethoxy)benz)amino)benzyl)imidazo[1,2-a]pyridine-3-carboxamide]
146.4 to 146.9 °C	< 40%	–	CCc1nc2ccc(Cl)cn2c1-c1nc(Cc2ccc(OC(F)(F)F)cc2)no1 [compound 165, 5-(6-Chloro-2-ethylimidazo[1,2-a]pyridin-3-yl)-3-(4-(trifluoromethoxy)benzyl)-1,2,4-oxadiazole]
122.3 to 123 °C	40 to 69%	–	CCc1nc2ccc(Cl)cn2c1C(=O)OCc1ccc(-c2ccccc2)cc1 [compound 162, [1,1′-Biphenyl]-4-ylmethyl 6-chloro-2-ethylimidazo[1,2-a]pyridine-3-carboxylate]
161.3 °C	–	< 1 µM	CCc1nc2ccc(Cl)cn2c1COc1ccc(N2CCN(c3ccc(F)cc3)CC2)cc1 [compound 399, 6-chloro-2-ethyl-3-((4-(4-(4-fluorophenyl)piperazin-1-yl)phenoxy)methyl)imidazo[1,2-a]pyridine]
